According to ChEMBL document CHEMBL5257127, “SolS-catalyzed sulfoxidation of labionin to solabionin drives antibacterial activity of solabiomycins” (2023):
≈ marks a conversion by molar mass, not a printed value. Calls of active or inactive are those of the source. No cut-off for these calls is given here.

Columns and labels:
[1] = test system: Candida albicans; assay: Antifungal activity against Candida albicans assessed as fungal growth inhibition at 20 nmol by paper disc diffusion assay; format: functional, organism-based
[2] = test system: Streptomyces sp.; assay: Antibacterial activity against Streptomyces sp. assessed as bacterial growth inhibition at 20 nmol by paper disc diffusion assay; format: functional, organism-based
[3] = test system: Streptomyces sp.; assay: Antibacterial activity against Streptomyces sp. TP-A0584 assessed as bacterial growth inhibition at 20 nmol by paper disc diffusion assay; format: functional, organism-based
[4] = test system: Mycobacterium tuberculosis; assay: Antibacterial activity against Mycobacterium tuberculosis H37Rv assessed as bacterial growth inhibition; format: functional
[5] = test system: Escherichia coli; assay: Antibacterial activity against Escherichia coli assessed as bacterial growth inhibition at 20 nmol by paper disc diffusion assay; format: functional, organism-based
[6] = test system: Micrococcus luteus; assay: Antibacterial activity against Micrococcus luteus assessed as bacterial growth inhibition at 20 nmol by paper disc diffusion assay; format: functional, organism-based
[7] = test system: Escherichia coli; assay: Antibacterial activity against Escherichia coli RFM795 harboring lptD gene mutation assessed as bacterial growth inhibition at 20 nmol by paper disc diffusion assay; format: functional, organism-based
[8] = test system: Micrococcus luteus; assay: Antibacterial activity against Micrococcus luteus assessed as bacterial growth inhibition by paper disc diffusion assay; format: functional
[9] = test system: Mycolicibacterium smegmatis; assay: Antibacterial activity against Mycolicibacterium smegmatis assessed as bacterial growth inhibition at 20 nmol by paper disc diffusion assay; format: functional, organism-based
[10] = test system: Mycolicibacterium smegmatis; assay: Antibacterial activity against Mycolicibacterium smegmatis assessed as bacterial growth inhibition by paper disc diffusion assay; format: functional
[11] = test system: Staphylococcus aureus; assay: Antibacterial activity against Staphylococcus aureus assessed as bacterial growth inhibition at 20 nmol by paper disc diffusion assay; format: functional, organism-based
[12] = test system: Streptomyces lydicus; assay: Antibacterial activity against Streptomyces lydicus assessed as bacterial growth inhibition at 20 nmol by paper disc diffusion assay; format: functional, organism-based
[13] = test system: Streptomyces nigrescens; assay: Antibacterial activity against Streptomyces nigrescens HEK616 assessed as bacterial growth inhibition at 20 nmol by paper disc diffusion assay; format: functional, organism-based
[14] = test system: Staphylococcus aureus; assay: Antibacterial activity against Staphylococcus aureus assessed as bacterial growth inhibition by paper disc diffusion assay; format: functional
[15] = test system: Saccharomyces cerevisiae; assay: Antifungal activity against Saccharomyces cerevisiae assessed as fungal growth inhibition at 20 nmol by paper disc diffusion assay; format: functional, organism-based

Compound | Activity [1] | Activity [2] | Activity [3] | MIC [4] [µM] | Activity [5] | Activity [6] | Activity [7] | MIC [8] [µM] | Activity [9] | MIC [10] [µM] | Activity [11] | Activity [12] | Activity [13] | MIC [14] [µM] | Activity [15]
C/C=C1/NC(=O)C(NC(=O)CNC(=O)CCCCCCCCCCCCNC(=N)N)CC2(C[S+]([O-])CC(C(=O)O)NC(=O)CNC(=O)CNC2=O)NC(=O)[C@H](C(C)C)NC1=O (stereo not given in full) | inactive | Active | Active | 0.35 (≈ 0.309 µg/mL) | Active | Active | inactive | 25.6 (≈ 22.6 µg/mL) | Active | 25.6 (≈ 22.6 µg/mL) | Active | inactive | inactive | 51.2 (≈ 45.2 µg/mL) | inactive
C/C=C1/NC(=O)C(NC(=O)CNC(=O)CCCCCCCCCCCCNC(=N)N)CC2(C[S+]([O-])CC(C(=O)O)NC(=O)CNC(=O)CNC2=O)NC(=O)[C@H]([C@@H](C)CC)NC1=O (stereo not given in full) | inactive | Active | Active | 0.35 (≈ 0.314 µg/mL) | Active | Active | inactive | 12.8 (≈ 11.5 µg/mL) | Active | 6.4 (≈ 5.73 µg/mL) | Active | inactive | inactive | 12.8 (≈ 11.5 µg/mL) | inactive
NC[C@H]1O[C@H](O[C@H]2[C@H](O)[C@@H](O[C@H]3O[C@H](CO)[C@@H](O)[C@H](N)[C@H]3O)[C@H](N)C[C@@H]2N)[C@H](O)[C@@H](O)[C@@H]1O [KANAMYCIN] |  |  |  |  |  |  |  | 12.8 (≈ 6.2 µg/mL) |  | 1.6 (≈ 0.775 µg/mL) |  |  |  | 0.2 (≈ 0.0969 µg/mL) | 
C/C=C1/NC(=O)C(NC(=O)CNC(=O)CCCCCCCCCCCCNC(=N)N)CC2(CSCC(C(=O)O)NC(=O)CNC(=O)CNC2=O)NC(=O)[C@H](C(C)C)NC1=O (stereo not given in full) |  | Active |  |  | Active | Active | inactive | 102 (≈ 88.7 µg/mL) | Active | 51.2 (≈ 44.3 µg/mL) | Active | inactive | inactive | 102 (≈ 88.7 µg/mL) | 
C/C=C1/NC(=O)C(NC(=O)CNC(=O)CCCCCCCCCCCCNC(=N)N)CC2(CSCC(C(=O)O)NC(=O)CNC(=O)CNC2=O)NC(=O)[C@H]([C@@H](C)CC)NC1=O (stereo not given in full) |  | Active |  |  | Active | Active | inactive | 51.2 (≈ 45.1 µg/mL) | Active | 25.6 (≈ 22.5 µg/mL) | Active | inactive | inactive | 51.2 (≈ 45.1 µg/mL) | 
